T/C and Activity data for 1 compound are collected here from ChEMBL document CHEMBL1151362, “Catharanthus alkaloids. XXXIV. Catharanthamine, a new antitumor bisindole alkaloid from Catharanthus roseus” (1981).

For assay [1], the system named is P388. Description: In vivo antitumor activity against mouse P388 cells at 1 mg/kg relative to control. The assay is classed as functional.
In assay [2] the test system is KB. Description: Cytotoxicity against human KB cells. The assay is classed as functional, cell-based.

The structures appear in SMILES notation. The source made the active and inactive calls. No cut-off for these calls is given here.

Broadly, the T/C is the ratio of treated to control. Turning to `CC[C@]12C[C@H]3CN(CCc4c([nH]c5ccccc45)[C@@](C(=O)OC)(c4cc5c(cc4OC)N(C)[C@H]4[C@@](O)(C(=O)OC)[C@H](OC(C)=O)[C@]6(CC)C=CCN7CC[C@]54[C@@H]76)[C@@H]3O1)C2` [CATHARANTHAMINE], in assay [1], the T/C was 176%. The result in assay [2] was Active.
